# Laboratory results published in PubChem BioAssay AID2060325 (Molecular Pharmacology Branch, DTP, NCI, 2025).
# “And” between values parts separate entries of the source, which are not always exact repeats. Identical values can stand only once.
# Tested on: SK-OV-3 multi-cell spheroids, viability
# Experiment: Anticancer human tumor SK-OV-3 cell line growth inhibition [IpAb];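 on viability, T/C: viability read after seven days of drug exposure; percent of DMSO vehicle control luminescence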
# Settings: for viability, T/C: stronger effect = lower value
# Description: Combinatorial screen of targeted agents with ipatasertib and abemaciclib in multi-cell type tumor spheroids
# A high-throughput screen of multi-cell type tumor spheroids was designed to identify active combinations of targeted small molecules and ipatasertib or abemaciclib. Complex spheroids include a stromal component modeled by human endothelial cells (HUVEC) and fibroblasts modeled by human mesenchymal stem cells (MSCs). The concentration ranges selected for each drug and investigational agent were based upon clinically achievable concentrations if the clinical Cmax of the agent was known.
# Compounds. The drugs and investigational agents: ipatasertib (NSC767898), abemaciclib(NSC768073), selumetinib (NSC741078), trametinib (758246), adavosertib (NSC754352), everolimus (NSC733504), sapanisertib (NSC764658), vemurafenib (NSC761431), venetoclax (NSC766270), copanlisib (NSC809693), apelisib (NSC765974), palbociblib (NSC758247), vemurafenib (NSC761431), dabrafenib (NSC764134), ravoxertinib (NSC781343), BMS-387032 (NSC767048), sotorasib (NSC818433), talazoparib (NSC767125) and afursertib (NSC778305), were obtained from the National Cancer Institute (NCI) Developmental Therapeutics Program Chemical Repository. The FDA-approved anticancer drug set is available from the NCI Developmental Therapeutics Program. […] The stock solutions were prepared in dimethyl sulfoxide (DMSO, Sigma-Aldrich, St. Louis, MO, cat. D2650) at 800-fold the tested concentration and stored at -70 degrees C prior to their use. All drugs and investigational agents were tested over a range starting from a high concentration at or near the clinical Cmax and decreasing in half-log increments. If the clinical Cmax for an agent had not been determined, the highest concentration tested was 10 microM.
# NCI60 Cell Culture. NCI60 cell lines were obtained from the NCI Developmental Therapeutics Program Tumor Repository. For each lot of cells, the Repository performed Applied Biosystems AmpFLSTR Identifiler testing with PCR amplification to confirm consistency with the published Identifier STR profile for each cell line. Cells were kept in continuous culture for no more than 20 passages. The optimal seeding densities for each of the cell lines at each time point assessed were determined prior to performing the concentration response studies. Briefly, the NCI60 human tumor lines were grown as monolayers in RPMI 1640 medium supplemented with 10% FBS and 2 mmol/L L-glutamine.
# An additional 9 lines were from the NCI60 cell line panel including MDA-MB-231 breast carcinoma, MDA-MB-468 breast carcinoma, MCF7 breast carcinoma, Hs578T breast carcinoma, MALME-3M melanoma, SK-MEL-2 melanoma, SK-OV-3 ovarian carcinoma, DU-145 prostate carcinoma, PC-3 prostate carcinoma, all cell lines along with major genetic alterations are listed on Table 2. Pooled donor human umbilical vein endothelial cells (HUVEC, Lonza, cat. CC-2519) and human mesenchymal stem cells (hMSC, Lonza, cat. PT-2501) were purchased from Lonza (Walkersville, MD).
# PDMR cell lines were grown in complete medium (DC medium): Dulbecco's modified Eagle's medium (DMEM)/F12 supplemented with 5% fetal bovine serum (FBS), 2 mM L-glutamine, 100 U/mL penicillin and 100 µg/ml streptomycin, 0.4 µg/ml hydrocortisone, 10 ng/ml epidermal growth factor (EGF) recombinant human protein, 24 µg/mL adenine, and 0.1 mg/mL primocin. During culture from frozen stock vials, PDMR cells were cultured in the same medium containing 10 µM Y-27632 (see Table 3). The PDCs were cultured in complete DMEM/F12 media without 10 microM Y-27632 dihydrochloride for at least two passages prior to the screen. The pooled donor HUVEC and hMSC were cultured in endothelial cell growth medium 2 (PromoCell, Heidelberg, Germany, cat. C-22011) and mesenchymal stem cell growth medium 2 (PromoCell, cat. C-28009), respectively. For all experiments, HUVEC and hMSC were used at passages </=5.
# […]
compound,measurement,setting,value
Cc1nc(NC(=O)N2CCCC2C(N)=O)sc1-c1ccnc(C(C)(C)C(F)(F)F)c1 (stereo not given),"viability, T/C",compound 0.0316 µM,91.9% and 91.3%
same,"viability, T/C",compound 0.1 µM,78.5% and 80.2%
same,"viability, T/C",compound 0.316 µM,47.3% and 49%
same,"viability, T/C",compound 1 µM,20.7% and 26.9%
same,"viability, T/C",compound 3.16 µM,10.9% and 10.7%
same,"viability, T/C",compound 10 µM,5.21% and 4.93%
same,IC50,curve of compound,291 nM and 337 nM
Cn1cnc2c(F)c(Nc3ccc(Br)cc3Cl)c(C(=O)NOCCO)cc21,"viability, T/C",compound 0.00949 µM,96% and 97.7%
same,"viability, T/C",compound 0.03 µM,106% and 99.9%
same,"viability, T/C",compound 0.0949 µM,98% and 112%
same,"viability, T/C",compound 0.3 µM,104% and 108%
same,"viability, T/C",compound 0.949 µM,73.2% and 80.4%
same,"viability, T/C",compound 3 µM,39.5% and 29.2%
same,IC50,curve of compound,2100 nM and 1880 nM
Cn1ncc(Cl)c1-c1cc(C(=O)NC(CN)Cc2cccc(F)c2)sc1Cl (stereo not given),"viability, T/C",compound 0.0316 µM,73.4% and 80.3%
same,"viability, T/C",compound 0.1 µM,52.8% and 48.3%
same,"viability, T/C",compound 0.316 µM,27.5% and 26.4%
same,"viability, T/C",compound 1 µM,16.1% and 19%
same,"viability, T/C",compound 3.16 µM,8.76% and 8.97%
same,"viability, T/C",compound 10 µM,0.31% and 1.17%
same,IC50,curve of compound,106 nM and 96.1 nM
Cn1nccc1Nc1nccc(-c2ccn(C(CO)c3ccc(Cl)c(F)c3)c(=O)c2)n1 (stereo not given),"viability, T/C",compound 0.0316 µM,101% and 98.5%
same,"viability, T/C",compound 0.1 µM,103% and 108%
same,"viability, T/C",compound 0.316 µM,108% and 116%
same,"viability, T/C",compound 1 µM,126%
same,"viability, T/C",compound 3.16 µM,94.8% and 100%
same,"viability, T/C",compound 10 µM,52.2% and 48.9%
same,IC50,curve of compound,> 10000 nM and 9730 nM
Cn1ncnc1[C@H]1c2n[nH]c(=O)c3cc(F)cc(c23)N[C@@H]1c1ccc(F)cc1,"viability, T/C",compound 0.000316 µM,108% and 97.8%
same,"viability, T/C",compound 0.001 µM,101% and 102%
same,"viability, T/C",compound 0.00316 µM,101% and 98.3%
same,"viability, T/C",compound 0.01 µM,98.5% and 88.4%
same,"viability, T/C",compound 0.0316 µM,87.8% and 86.8%
same,"viability, T/C",compound 0.1 µM,73.5% and 68.5%
same,IC50,curve of compound,> 100 nM
Cn1cnc2c(F)c(Nc3ccc(Br)cc3Cl)c(C(=O)NOCCO)cc21 + CC(C)NCC(C(=O)N1CCN(c2ncnc3c2C(C)CC3O)CC1)c1ccc(Cl)cc1,IC50,"curve of first compound, second compound 0.1 µM",164 nM
same,IC50,"curve of first compound, second compound 0.316 µM",< 9.49 nM
same,IC50,"curve of first compound, second compound 1 µM",< 9.49 nM
same,IC50,"curve of first compound, second compound 3.16 µM",< 9.49 nM
same,IC50,"curve of first compound, second compound 10 µM",< 9.49 nM
same,"viability, T/C","second compound 0.1 µM, first compound 0.00949 µM",61.9%
same,"viability, T/C","second compound 0.1 µM, first compound 0.03 µM",62%
same,"viability, T/C","second compound 0.1 µM, first compound 0.0949 µM",49.1%
same,"viability, T/C","second compound 0.1 µM, first compound 0.3 µM",48%
same,"viability, T/C","second compound 0.1 µM, first compound 0.949 µM",35.8%
same,"viability, T/C","second compound 0.1 µM, first compound 3 µM",19.7%
same,"viability, T/C","second compound 0.316 µM, first compound 0.00949 µM",33.9%
same,"viability, T/C","second compound 0.316 µM, first compound 0.03 µM",30.4%
same,"viability, T/C","second compound 0.316 µM, first compound 0.0949 µM",25.8%
same,"viability, T/C","second compound 0.316 µM, first compound 0.3 µM",21.6%
same,"viability, T/C","second compound 0.316 µM, first compound 0.949 µM",18.6%
same,"viability, T/C","second compound 0.316 µM, first compound 3 µM",10.3%
same,"viability, T/C","second compound 1 µM, first compound 0.00949 µM",19.6%
same,"viability, T/C","second compound 1 µM, first compound 0.03 µM",16.7%
same,"viability, T/C","second compound 1 µM, first compound 0.0949 µM",15.2%
same,"viability, T/C","second compound 1 µM, first compound 0.3 µM",11.8%
same,"viability, T/C","second compound 1 µM, first compound 0.949 µM",9.36%
same,"viability, T/C","second compound 1 µM, first compound 3 µM",4.86%
same,"viability, T/C","second compound 3.16 µM, first compound 0.00949 µM",13.5%
same,"viability, T/C","second compound 3.16 µM, first compound 0.03 µM",11.4%
same,"viability, T/C","second compound 3.16 µM, first compound 0.0949 µM",9.44%
same,"viability, T/C","second compound 3.16 µM, first compound 0.3 µM",9.1%
same,"viability, T/C","second compound 3.16 µM, first compound 0.949 µM",6.43%
same,"viability, T/C","second compound 3.16 µM, first compound 3 µM",3.45%
same,"viability, T/C","second compound 10 µM, first compound 0.00949 µM",6.91%
same,"viability, T/C","second compound 10 µM, first compound 0.03 µM",7.44%
same,"viability, T/C","second compound 10 µM, first compound 0.0949 µM",7.64%
same,"viability, T/C","second compound 10 µM, first compound 0.3 µM",5.26%
same,"viability, T/C","second compound 10 µM, first compound 0.949 µM",4.92%
same,"viability, T/C","second compound 10 µM, first compound 3 µM",2.28%
